The source made the active and inactive calls. The calls are words filed in the database; no cut-off is given here.

The target in assay [1] is T1, Inhibitor of nuclear factor kappa-B kinase subunit alpha (Homo sapiens) (UniProt O15111).
T1 sequence (whole entry): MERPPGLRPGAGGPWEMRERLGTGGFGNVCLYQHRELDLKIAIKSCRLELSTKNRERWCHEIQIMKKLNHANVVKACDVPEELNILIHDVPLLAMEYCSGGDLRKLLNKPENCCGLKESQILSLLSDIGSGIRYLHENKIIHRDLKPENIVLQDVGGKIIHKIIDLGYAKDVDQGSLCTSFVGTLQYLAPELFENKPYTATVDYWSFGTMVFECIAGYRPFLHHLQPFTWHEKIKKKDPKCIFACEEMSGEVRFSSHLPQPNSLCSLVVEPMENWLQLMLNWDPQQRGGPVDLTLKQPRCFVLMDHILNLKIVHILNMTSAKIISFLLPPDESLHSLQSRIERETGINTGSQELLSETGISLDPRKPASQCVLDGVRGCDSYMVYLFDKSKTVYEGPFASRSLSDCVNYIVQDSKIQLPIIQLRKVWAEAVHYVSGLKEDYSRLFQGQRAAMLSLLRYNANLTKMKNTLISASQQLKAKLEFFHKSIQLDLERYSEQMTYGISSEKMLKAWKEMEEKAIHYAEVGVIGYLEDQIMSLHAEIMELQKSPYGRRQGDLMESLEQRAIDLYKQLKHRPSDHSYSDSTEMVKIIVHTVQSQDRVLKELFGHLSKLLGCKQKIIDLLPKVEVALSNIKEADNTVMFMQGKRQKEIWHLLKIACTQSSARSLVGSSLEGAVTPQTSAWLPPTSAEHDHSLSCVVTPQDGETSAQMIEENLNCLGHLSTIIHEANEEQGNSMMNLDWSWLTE
The conditions noted are these: Sf21, 30 uM.
Description: Inhibition of human recombinant IKK-alpha expressed in insect Sf21 cells using phospho-Ulight-IkappaB-alpha as substrate at 30 uM

The target of assay [2] is Serine/threonine-protein kinase Chk2 (Homo sapiens) (UniProt O96017). Kind of assay: Inhibition of human CHK2 kinase expressed in insect Sf21 cells using phospho-CREBtide as substrate at 30 uM.
Serine/threonine-protein kinase Chk2 (Homo sapiens), sequence (O96017 whole entry): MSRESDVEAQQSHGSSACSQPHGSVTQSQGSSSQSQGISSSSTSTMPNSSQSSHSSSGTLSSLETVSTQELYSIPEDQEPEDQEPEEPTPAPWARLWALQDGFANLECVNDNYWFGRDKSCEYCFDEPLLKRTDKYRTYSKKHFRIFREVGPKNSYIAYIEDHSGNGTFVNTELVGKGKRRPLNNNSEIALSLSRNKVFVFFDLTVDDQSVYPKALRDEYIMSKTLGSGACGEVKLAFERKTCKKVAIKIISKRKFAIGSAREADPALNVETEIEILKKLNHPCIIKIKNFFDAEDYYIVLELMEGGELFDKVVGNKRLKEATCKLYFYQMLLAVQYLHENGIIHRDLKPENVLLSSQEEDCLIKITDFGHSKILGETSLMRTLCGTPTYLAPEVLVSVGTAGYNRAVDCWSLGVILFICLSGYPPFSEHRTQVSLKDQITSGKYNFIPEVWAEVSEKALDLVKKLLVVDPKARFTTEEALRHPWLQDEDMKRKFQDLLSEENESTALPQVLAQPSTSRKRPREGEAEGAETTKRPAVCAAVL
The target in assay [3] is T2, Inhibitor of nuclear factor kappa-B kinase subunit beta (Homo sapiens) (UniProt O14920).
T2 sequence (whole entry): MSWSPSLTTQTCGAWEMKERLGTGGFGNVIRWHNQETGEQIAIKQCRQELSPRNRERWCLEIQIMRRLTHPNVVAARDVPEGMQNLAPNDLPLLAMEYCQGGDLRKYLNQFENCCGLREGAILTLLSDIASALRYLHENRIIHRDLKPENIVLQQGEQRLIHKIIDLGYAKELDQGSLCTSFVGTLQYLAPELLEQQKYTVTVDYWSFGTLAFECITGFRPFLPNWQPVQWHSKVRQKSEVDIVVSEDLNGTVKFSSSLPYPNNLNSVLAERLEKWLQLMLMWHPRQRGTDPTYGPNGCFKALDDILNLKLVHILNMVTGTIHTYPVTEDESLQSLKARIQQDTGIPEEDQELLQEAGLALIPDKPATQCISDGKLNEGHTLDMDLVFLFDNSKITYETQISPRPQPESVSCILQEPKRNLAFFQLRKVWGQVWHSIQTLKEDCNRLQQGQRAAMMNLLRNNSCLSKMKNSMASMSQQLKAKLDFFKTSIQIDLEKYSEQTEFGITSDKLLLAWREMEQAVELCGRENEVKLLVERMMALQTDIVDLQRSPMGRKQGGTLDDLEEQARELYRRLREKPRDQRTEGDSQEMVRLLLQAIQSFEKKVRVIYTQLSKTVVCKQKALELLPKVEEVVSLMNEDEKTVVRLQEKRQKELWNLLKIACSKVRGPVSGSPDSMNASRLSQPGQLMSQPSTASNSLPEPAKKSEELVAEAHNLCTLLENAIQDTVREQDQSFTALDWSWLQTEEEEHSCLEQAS
The conditions noted are these: Sf21, 30 uM.
Description: Inhibition of human recombinant IKK-beta expressed in insect Sf21 cells using phospho-Ulight-IkappaB-alpha as substrate at 30 uM

The species named for assay [4] is Mus musculus. Conditions: Swiss, Ear, at 10 µmol/kg.
The subject of assay [5] is Mus musculus. Kind of assay: Antiinflammatory activity in Swiss mouse assessed as inhibition of arachidonic acid-induced ear edema at 10 to 100 umol/kg, ip administered 60 mins before arachidonic acid challenge measured after 1 to 6 hrs by electronic digital caliper. In kind it is functional, organism-based.
Assay [6] has as its target T3, Inhibitor of nuclear factor kappa-B kinase subunit beta (Homo sapiens, UniProt O14920).
T3 sequence (O14920 whole entry): T2 sequence (whole entry)
Description: Inhibition of human recombinant IKK-beta expressed in insect Sf21 cells using phospho-Ulight-IkappaB-alpha as substrate.

Consider `COC(=O)c1ccc(/C=N/NC(=O)c2ccc3ccccc3c2)cc1`, for which the inhibition in assay [1], in assay [2] and in assay [3] was 0% each time.
Regarding `O=C(O)c1ccc(/C=N/NC(=O)c2ccc3ccccc3c2)cc1`, the inhibition in assay [1], in assay [2] and in assay [3] was 0% throughout.
Turning to `NC(=O)c1sc(-c2ccsc2)cc1N`, the inhibition (usually the percentage by which the read-out fell short of the control) in the assay filed under Mus musculus [4] is “Active”.
For `O=C(N/N=C/c1ccc([N+](=O)[O-])cc1)c1ccc2ccccc2c1`, the inhibition in assay [1] was 0%; in assay [2], 0%; in the assay with Mus musculus [5], “Dose-dependent effect”; in assay [3], 1.2%. Besides, the inhibition entry in the assay filed under Mus musculus [4] was “Active”. The IC50 (usually the point on the concentration scale where inhibition reaches its midpoint) in assay [6] worked out at 20 µM.
